Patent US20230022488A1, “Laundry Composition” (FIRMENICH SA, priority 2019, published 2023)

System: panelist
Assay: Odor threshold concentration (Log T / Log ODT) by gas chromatograph with sniff port
Set-up: species or system human
Description: “High impact perfume raw materials” should be understood as perfume raw materials having a Log T<−4. The odor threshold concentration of a chemical compound is determined in part by its shape, polarity, partial charges and molecular mass. For convenience, the threshold concentration is presented as the common logarithm of the threshold concentration, i.e., Log [Threshold] (“Log T”).
The odor threshold concentration of a perfuming compound is determined by using a gas chromatograph (“GC”). Specifically, the gas chromatograph is calibrated to determine the exact volume of the perfume oil ingredient injected by the syringe, the precise split ratio, and the hydrocarbon response using a hydrocarbon standard of known concentration and chain-length distribution. The air flow rate is accurately measured and, assuming the duration of a human inhalation to last 12 seconds, the sampled volume is calculated. […] To determine the threshold concentration, solutions are delivered to the sniff port at the back-calculated concentration. A panelist sniffs the GC effluent and identifies the retention time when odor is noticed. The average across all panelists determines the odor threshold concentration of the perfuming compound. The determination of odor threshold is described in more detail in C.

[1] = ingredient of Perfume oil C (Table 5)
[2] = ingredient of Perfume oil A (Table 1)
[3] = ingredient of Perfume oil B (Table 3)
[4] = ingredient of Perfume oil D (Table 7)

Compound | Log ODT [1] | Log ODT [2] | Log ODT [3] | Log ODT [4]
1-OXA-12-CYCLOHEXADECEN-2-ONE (A) + 1-OXA-13-CYCLOHEXADECEN-2-ONE (B) | >−4 | – | – | –
2-METHYLBUTYL SALICYLATE (A) + PENTYL SALICYLATE (B) | – | >−4 | – | –
3,5,6-TRIMETHYL-3-CYCLOHEXENE-1-CARBALDEHYDE (A) + 2,4,6-TRIMETHYL-3-CYCLOHEXENE-1-CARBALDEHYDE (B) | >−4 | – | – | –
3,7-DIMETHYL-2,6-NONADIENENITRILE (A) + 3,7-DIMETHYL-3,6-NONADIENENITRILE (B) | >−4 | – | – | –
3-(4-ETHYLPHENYL)-2,2-DIMETHYLPROPANAL (A) + 3-(2-ETHYLPHENYL)-2,2-DIMETHYLPROPANAL (B) | – | – | >−4 | –
10-UNDECENAL (A) + (9E)-9-UNDECENAL (B) + (9Z)-9-UNDECENAL (C) | <−4 | – | <−4 | –
CC(C)c1cccc(C(C)CC=O)c1 (racemic) [(+−)-3-(3-ISOPROPYL-1-PHENYL)BUTANAL] | – | – | <−4 | –
CCCCC[C@H]1C(=O)CC[C@@H]1CC(=O)OC (racemic) [METHYL 2-((1RS,2RS)-3-OXO-2-PENTYLCYCLOPENTYL) ACETATE] | >−4 | >−4 | – | –
c1ccc(Oc2ccccc2)cc1 [1,1′-OXYDIBENZENE] | – | >−4 | – | –
(1 RS,2RS)-2,4-DIMETHYL-3-CYCLOHEXENE-1-CARBALDEHYDE (A) + (1 RS,2SR)-2,4-DIMETHYL-3-CYCLOHEXENE-1-CARBALDEHYDE (B) | >−4 | >−4 | – | –
(2RS,4SR)-4-METHYL-2-(2-METHYL-1-PROPEN-1-YL)TETRAHYDRO-2H-PYRAN (A) + (2RS,4RS)-4-METHYL-2-(2-METHYL-1-PROPEN-1-YL)TETRAHYDRO-2H-PYRAN (B) | – | >−4 | >−4 | –
(2Z)-1,1-DIETHOXY-3,7-DIMETHYL-2,6-OCTADIENE (A) + (2E)-1,1-DIETHOXY-3,7-DIMETHYL-2,6-OCTADIENE (B) | – | – | >−4 | >−4
(+)-(3S)-3-[(1R)-4-METHYL-3-CYCLOHEXEN-1-YL]BUTANAL (A) + (+)-(3R)-3-[(1R)-4-METHYL-3-CYCLOHEXEN-1-YL]BUTANAL | – | – | – | >−4
(+−)-4-METHYLENE-2-PHENYLTETRAHYDRO-2H-PYRAN (A) + (+−)-4-METHYL-6-PHENYL-3,6-DIHYDRO-2H-PYRAN (B) + (+−)-4-METHYL-2-PHENYL-3,6-DIHYDRO-2H-PYRAN (C) | – | – | <−4 | <−4
(+−)-(3E)-3-METHYL-4-(2,6,6-TRIMETHYL-2-CYCLOHEXEN-1-YL)-3-BUTEN-2-ONE (A) + (+−)-(1E)-1-(2,6,6-TRIMETHYL-2-CYCLOHEXEN-1-YL)-1-PENTEN-3-ONE (B) | <−4 | – | – | –
.ALPHA.-DIHYDROTERPINEOL (A) + .BETA.-DIHYDROTERPINEOL (B) | – | – | >−4 | –
TRICYCLO[5.2.1.0~2,6~]DEC-3-EN-8-YL ACETATE (A) + TRICYCLO[5.2.1.0~2,6~]DEC-4-EN-8-YL ACETATE (B) | – | >−4 | >−4 | –
